# Results from article PMC3776002 (International journal of infectious diseases : IJID : …, 2013).
# Assay: Steady-state plasma LPV pharmacokinetics with and without African potato
# Format: in vivo, human
# Details: for CLF (apparent clearance), arithmetic mean (SD): LPV; for AUC: AUCτ; for concentration at 12 h: Ctrough
# [1] = plasma LPV, steady state, day 21, LPV/r plus African potato, n = 16
# [2] = plasma LPV, expressed as a percentage of the GM of LPV/r alone, n = 16
smiles,measurement,setting,value
"Cc1cccc(C)c1OCC(=O)N[C@@H](Cc1ccccc1)[C@@H](O)C[C@H](Cc1ccccc1)NC(=O)[C@H](C(C)C)N1CCCNC1=O [LPV, Lopinavir]","CLF (apparent clearance), arithmetic mean (SD)","steady state, day 14, LPV/r alone, n = 16",4.61 (1.56) l/h
same,"CLF (apparent clearance), arithmetic mean (SD)","steady state, day 21, LPV/r plus African potato, n = 16",4.64 (1.32) l/h
same,Cmax,"human, plasma, oral",10.1 µg/mL
same,AUC,"human, plasma, oral, arithmetic mean (SD), plasma LPV, steady state, day 14, LPV/r 400/100 mg twice daily alone, n = 16",94.4 µg·h/mL
same,AUC,"human, plasma, oral, arithmetic mean (SD), plasma LPV, steady state, day 21, LPV/r 400/100 mg twice daily plus African potato four capsules once daily for 7 days, n = 16",93.2 µg·h/mL
same,concentration at 12 h,"human, plasma, oral, arithmetic mean (SD), plasma LPV, steady state, day 14, LPV/r alone, n = 16",4.85 µg/mL
same,concentration at 12 h,"human, plasma, oral, arithmetic mean (SD), plasma LPV, steady state, day 21, LPV/r plus African potato, n = 16",4.9 µg/mL
same,concentration at 12 h,"human, plasma, oral, geometric mean, plasma LPV, steady state, day 14, LPV/r alone, n = 16",4.13 µg/mL
same,concentration at 12 h,"human, plasma, oral, geometric mean, plasma LPV, steady state, day 21, LPV/r plus African potato, n = 16",4.38 µg/mL
same,"AUCτ, geometric mean","plasma LPV, steady state, day 14, LPV/r alone, n = 16",90.78 µg·h/mL
same,"AUCτ, geometric mean",[1],89.66 µg·h/mL
same,"Cmax, arithmetic mean (SD)",[1],10.18 (2.25) μg/ml
same,"AUCτ, PE (point estimate of the ratio of geometric means of LPV/r plus African potato and LPV/r)",[2],98.77%
same,"Cmax, PE (point estimate of the ratio of geometric means of LPV/r plus African potato and LPV/r)",[2],100.90%
same,"Ctrough, PE (point estimate of the ratio of geometric means of LPV/r plus African potato and LPV/r)",[2],105.98%
